Laboratory results: PMC6515479, “An Investigation on Glucuronidation Metabolite Identification, Isozyme Contribution, and Species Differences of GL-V9 In Vitro and In Vivo” (Molecules, 2019)

Key:
Format in all cases: in vitro ADME
[1] = target: T1, rUGT2B7 (Homo sapiens, UniProt P16662); test: UGT phenotyping of GL-V9 glucuronidation, rUGT2B7; conditions: GL-V9 0.5, 1, 5 μM, 37 °C, 1 h
T1 construct: purchased Corning (Woburn, MA, USA)
T1 sequence (P16662 24-529): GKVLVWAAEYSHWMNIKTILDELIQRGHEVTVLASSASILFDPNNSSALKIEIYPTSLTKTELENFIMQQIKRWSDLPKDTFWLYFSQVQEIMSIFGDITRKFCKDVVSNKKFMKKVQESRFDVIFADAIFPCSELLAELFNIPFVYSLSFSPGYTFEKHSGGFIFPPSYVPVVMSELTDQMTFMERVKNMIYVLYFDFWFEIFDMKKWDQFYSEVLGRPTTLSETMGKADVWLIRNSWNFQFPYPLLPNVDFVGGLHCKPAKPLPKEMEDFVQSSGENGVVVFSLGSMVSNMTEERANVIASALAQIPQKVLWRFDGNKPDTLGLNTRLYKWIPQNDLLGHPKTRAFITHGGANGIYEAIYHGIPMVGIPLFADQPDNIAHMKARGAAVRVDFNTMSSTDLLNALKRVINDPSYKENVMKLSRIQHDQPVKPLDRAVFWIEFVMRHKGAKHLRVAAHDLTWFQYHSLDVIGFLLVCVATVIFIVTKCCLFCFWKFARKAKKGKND
Procedure: (§1) The composition of the incubation system (200 μL) contained liver microsomes of different species (0.1 mg protein/mL), 5 mM saccharolactone (D-saccharic acid 1,4-lactone monohydrate), 10 mM MgCl2, alamethicin (50 μg/mg protein), Tris-HCl buffer (50 mM, pH 7.4) and GL-V9 (1 μM). After 5 min of preincubation at 37 °C, UDPGA (5 mM) was added to initiate the phase II reaction. Control incubation samples were performed without UDPGA or without substrates (GL-V9). The reaction was terminated by addition of ice-cold methanol (three volumes) after incubation for 1 h at 37 °C. Samples were vortexed, centrifuged at 21,500× g for 10 min and then stored at 4 °C until HPLC-UV-TripleTOF analysis. To confirm that these metabolites are conjugates resulting from glucuronidation reaction, enzymatic hydrolysis of samples was processed. β-glucuronidase (100 KU, Sigma) was added and the hydrolysis was performed overnight at 37 °C. The control samples were carried out without β-glucuronidase under the same condition.
(§2) Twelve human recombinant UGT isoforms (rUGT1A1, rUGT1A3, rUGT1A4, rUGT1A6, rUGT1A7, rUGT1A8, rUGT1A9, rUGT1A10, rUGT2B4, rUGT2B7, rUGT2B15, and rUGT2B17) were employed to identify the main UGT enzyme(s) responsible for glucuronidation of GL-V9 under mixture conditions as described in Section 4.3. […]

[2] = target: T2, rUGT2B4 (Homo sapiens, UniProt P06133); test: UGT phenotyping of GL-V9 glucuronidation, rUGT2B4; conditions: GL-V9 0.5, 1, 5 μM, 37 °C, 1 h
T2 construct: purchased Corning (Woburn, MA, USA)
T2 sequence (P06133 24-528): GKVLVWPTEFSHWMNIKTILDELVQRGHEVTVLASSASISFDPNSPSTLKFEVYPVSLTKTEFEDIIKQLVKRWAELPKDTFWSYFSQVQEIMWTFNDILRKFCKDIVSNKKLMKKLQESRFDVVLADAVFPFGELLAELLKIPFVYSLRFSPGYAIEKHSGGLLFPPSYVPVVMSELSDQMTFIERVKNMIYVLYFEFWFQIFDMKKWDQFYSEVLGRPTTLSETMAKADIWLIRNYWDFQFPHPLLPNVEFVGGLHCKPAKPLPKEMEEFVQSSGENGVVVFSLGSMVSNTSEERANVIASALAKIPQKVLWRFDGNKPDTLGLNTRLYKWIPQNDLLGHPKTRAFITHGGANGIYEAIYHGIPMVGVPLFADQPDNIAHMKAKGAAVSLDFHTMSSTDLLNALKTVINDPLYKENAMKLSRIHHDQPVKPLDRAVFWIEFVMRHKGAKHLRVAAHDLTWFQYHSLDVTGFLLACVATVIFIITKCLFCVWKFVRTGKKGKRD
Procedure: as §1, §2

[3] = target: T3, rUGT1A4 (Homo sapiens, UniProt P22310); test: UGT phenotyping of GL-V9 glucuronidation, rUGT1A4; conditions: GL-V9 0.5, 1, 5 μM, 37 °C, 1 h
T3 construct: purchased Corning (Woburn, MA, USA)
T3 sequence (P22310 29-534): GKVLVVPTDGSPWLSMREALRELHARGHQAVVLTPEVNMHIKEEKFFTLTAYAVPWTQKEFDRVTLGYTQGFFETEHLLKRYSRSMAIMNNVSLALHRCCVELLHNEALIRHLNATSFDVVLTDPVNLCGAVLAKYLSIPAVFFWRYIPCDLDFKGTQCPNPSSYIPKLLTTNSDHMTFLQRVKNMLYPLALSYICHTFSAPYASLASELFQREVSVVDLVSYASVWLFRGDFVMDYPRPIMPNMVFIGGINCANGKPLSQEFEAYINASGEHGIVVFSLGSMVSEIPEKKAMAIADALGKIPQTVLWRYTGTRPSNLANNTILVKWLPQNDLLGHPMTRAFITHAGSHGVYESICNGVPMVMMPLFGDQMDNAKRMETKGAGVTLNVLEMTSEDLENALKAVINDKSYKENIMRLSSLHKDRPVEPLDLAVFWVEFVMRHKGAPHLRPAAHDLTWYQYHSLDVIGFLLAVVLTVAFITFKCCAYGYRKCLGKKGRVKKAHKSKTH
Procedure: as §1, §2

[4] = tested on: human liver microsomes (HLMs); test: Enzyme kinetics of GL-V9 glucuronidation in human liver microsomes (HLMs); conditions: formation of 5-O-glucuronide GL-V9, protein 0.075 mg/mL, mean ± SD, n = 3
Procedure: as §1
(§3) Enzyme kinetics experiments were carried out in triplicate among five different species, including monkey, beagle dog, rat, mouse, and human. The reaction system and operations are as same as described in Section 4.3. The solutions of GL-V9 were selected over a range of concentrations (0.05, 0.2, 0.5, 1, 2, 5, 10, 20 μM). […]

[5] = as above; conditions: human, liver microsomes, pH 7.4, formation of 5-O-glucuronide GL-V9, protein 0.075 mg/mL, mean ± SD, n = 3
Procedure: as §1, §3

Catalytic activity in the production of 5-O-glucuronide GL-V9 [1]: did not show apparent catalytic activity | Catalytic activity in the production of 5-O-glucuronide GL-V9 [2]: did not show apparent catalytic activity | Metabolism rate (glucuronidation) [3]: too low to be biologically relevant | Vmax [4]: 88.49 ± 4.21 pmol/min/mg | Km at 1 h [5]: 11.2 ± 0.66 µM
SMILES: COc1c(OCCCCN2CCCC2)cc(O)c2c(=O)cc(-c3ccccc3)oc12 [GL-V9]
